Data as given in patent publication US20090087431A1, “METHODS OF TREATING BONE DISORDERS WITH MODULATORS OF AXL” (Wyeth, priority 2007, published 2009).

Experiments:
MC3T3-E1 cells = assay: Formation of mineralized nodules, Alizarin red staining; assay type: cell-based, murine; settings: 20 nM siRNA, Day 17 post-transfection, vs scrambled siRNA or mock
Method: MC3T3-E1 cells were seeded at a density of 50,000 cells/well of a 6-well plate and cultured in Alpha media supplemented with 1% glutamine and 10% FBS. The following day the cells were transfected with 20 nM (final concentration) siRNA using 0.4% (final) Oligofectamine (Invitrogen) for 4 hours. The siRNAs used in this study include the pool of Axl siRNAs and the Cbfa1/Runx2 siRNA described above. In addition two control treatments were included: a mock transfection where no siRNA was introduced and a non-specific, scrambled siRNA (as described).
Following transfection, the cells were maintained in Alpha media supplemented with 1% glutamine, 10% FBS and 10 mM β-glycerophosphate, a cofactor necessary for mineralization, with no other osteogenic agents. […]
To determine mineralization, cells were washed in PBS, fixed in cold ethanol and stained with Alizarin red using standard protocols. Semi-quantification of the extent of mineralization was conducted by de-staining the cells in 10% Cetylpyridinium chloride in 10 mM sodium phosphate for 15 minutes at room temperature. Supernatants were removed and absorbance at 570 nm measured. Concentrations were determined by obtaining absorbance measurements of a standard curve of known dilutions of Alizarin red (range from 50-400 uM). Mineralization was visually assessed by the presence of red-stained nodules.

Clone 14 cells = assay: Osteocalcin mRNA after siRNA transfection, osteoblast differentiation; assay type: cell-based, murine; settings: all tested conditions (with and without BMP2), p<0.05
Method: The role of Axl in osteoblast differentiation from an osteoprogenitor cell was investigated using RNA interference in the murine Clone 14 cell line. In these experiments, siRNA reagents against murine Axl were transfected into cells treated with either 0 ng/ml or 100 ng/ml BMP2. The induction of osteocalcin gene expression, an established osteoblast marker, was measured to assess osteoblast differentiation 4 days after the onset of treatment and transfection.
Clone 14 cells were seeded at 20,000 cells/well in a 96-well plate and cultured in DMEM media supplemented with 10% fetal bovine serum (FBS) and 1% L-glutamine. The following day, cells were transfected for 4 hours with siRNA at a final concentration of 20 nM using 0.5% (final) Lipofectamine2000 (Invitrogen, Carlsbad, Calif.). Cells were then cultured in DMEM supplemented with 1% FBS and 1% penicillin/streptomycin. […]
To assess the consequence of Axl knockdown on osteoblast differentiation, osteocalcin mRNA levels were monitored. […]
An additional negative control was the same non-specific, scrambled siRNA described above (NSP). Osteocalcin mRNA levels were monitored by real-time RT-PCR as above using the primers set forth in SEQ ID NO:9, SEQ ID NO:10, and SEQ ID NO:11 and shown below:
Osteocalcin mRNA levels are shown relative to those monitored in cells transfected with a scrambled, non-specific siRNA (NSP). […]

Runx2/Cbfa1: siRNA against Runx2/Cbfa1, 5′-CGUGAAUGGUCAUAAUAACU-3′; negative control (listed as RNA, chemistry not given here)
extent of mineralization (visual, Alizarin red) (MC3T3-E1 cells): dramatic reduction | osteoblast differentiation as monitored by osteocalcin mRNA expression (Clone 14 cells): dramatically repressed
